Results taken from PubChem BioAssay (NCI).
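The compound was tested at five concentrations on cells cultured in 96-well plates, with a 48-hour exposure period. GI50 = concentration required for 50% inhibition of growth. Definition used: TGI = concentration required for complete inhibition of growth.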

Legend:
Test in all cases: NCI tumour cell line growth inhibition, 48 h; in the data active = GI50 below about 0.43 µM; inactive = the rest
RPMI-8226 leukemia = tested on: RPMI-8226 leukemia
SR leukemia = tested on: SR leukemia
U251 CNS = tested on: U251 CNS
SF-539 CNS = tested on: SF-539 CNS
EKVX NSCLC = tested on: EKVX NSCLC
UACC-257 melanoma = tested on: UACC-257 melanoma
K-562 leukemia = tested on: K-562 leukemia
786-0 renal = tested on: 786-0 renal
NCI/ADR-RES ovarian = tested on: NCI/ADR-RES ovarian
LOX IMVI melanoma = tested on: LOX IMVI melanoma
PC-3 prostate = tested on: PC-3 prostate
TK-10 renal = tested on: TK-10 renal
SW-620 colon = tested on: SW-620 colon
MALME-3M melanoma = tested on: MALME-3M melanoma
NCI-H460 lung = tested on: NCI-H460 lung
HCT-116 colon = tested on: HCT-116 colon
SF-268 CNS = tested on: SF-268 CNS
OVCAR-5 ovarian = tested on: OVCAR-5 ovarian
SK-OV-3 ovarian = tested on: SK-OV-3 ovarian
NCI-H522 lung = tested on: NCI-H522 lung
MDA-MB-231 breast = tested on: MDA-MB-231 breast
OVCAR-8 ovarian = tested on: OVCAR-8 ovarian
SNB-19 CNS = tested on: SNB-19 CNS
COLO 205 colon = tested on: COLO 205 colon
CAKI-1 renal = tested on: CAKI-1 renal
DU-145 prostate = tested on: DU-145 prostate
T-47D breast = tested on: T-47D breast
ACHN renal = tested on: ACHN renal
MCF7 breast = tested on: MCF7 breast
KM12 colon = tested on: KM12 colon
CCRF-CEM leukemia = tested on: CCRF-CEM leukemia
SF-295 CNS = tested on: SF-295 CNS
A498 renal = tested on: A498 renal
HCT-15 colon = tested on: HCT-15 colon
SK-MEL-28 melanoma = tested on: SK-MEL-28 melanoma
NCI-H226 lung = tested on: NCI-H226 lung
MDA-MB-435 = tested on: MDA-MB-435
UO-31 renal = tested on: UO-31 renal
HOP-62 NSCLC = tested on: HOP-62 NSCLC
NCI-H23 lung = tested on: NCI-H23 lung
HOP-92 NSCLC = tested on: HOP-92 NSCLC
UACC-62 melanoma = tested on: UACC-62 melanoma
RXF 393 renal = tested on: RXF 393 renal
IGROV1 ovarian = tested on: IGROV1 ovarian
SK-MEL-5 melanoma = tested on: SK-MEL-5 melanoma
BT-549 breast = tested on: BT-549 breast
OVCAR-4 ovarian = tested on: OVCAR-4 ovarian
M14 melanoma = tested on: M14 melanoma
SK-MEL-2 melanoma = tested on: SK-MEL-2 melanoma
HS 578T breast = tested on: HS 578T breast
A549 NSCLC = tested on: A549 NSCLC
HT29 colon = tested on: HT29 colon
OVCAR-3 ovarian = tested on: OVCAR-3 ovarian

C=C1C(O)C2C(=C(CC(C)C)C13CC3)C(=O)C(C)(C)C2O (stereo unspecified)
inactive: GI50 (RPMI-8226 leukemia) 42.1 µM | GI50 (SR leukemia) > 100 µM | GI50 (U251 CNS) > 100 µM | GI50 (SF-539 CNS) > 100 µM | GI50 (EKVX NSCLC) > 100 µM | GI50 (UACC-257 melanoma) > 100 µM | GI50 (K-562 leukemia) 0.859 µM | GI50 (786-0 renal) > 100 µM | GI50 (NCI/ADR-RES ovarian) > 100 µM | GI50 (LOX IMVI melanoma) > 100 µM | GI50 (PC-3 prostate) > 100 µM | GI50 (TK-10 renal) > 100 µM | GI50 (SW-620 colon) > 100 µM | GI50 (MALME-3M melanoma) 89.9 µM | GI50 (NCI-H460 lung) > 100 µM | GI50 (HCT-116 colon) > 100 µM | GI50 (SF-268 CNS) > 100 µM | GI50 (OVCAR-5 ovarian) > 100 µM | GI50 (SK-OV-3 ovarian) > 100 µM | GI50 (NCI-H522 lung) > 100 µM | GI50 (MDA-MB-231 breast) > 100 µM | GI50 (OVCAR-8 ovarian) > 100 µM | GI50 (SNB-19 CNS) > 100 µM | GI50 (COLO 205 colon) > 100 µM | GI50 (CAKI-1 renal) > 100 µM | GI50 (DU-145 prostate) > 100 µM | GI50 (T-47D breast) > 100 µM | GI50 (ACHN renal) > 100 µM | GI50 (MCF7 breast) > 100 µM | GI50 (KM12 colon) > 100 µM | GI50 (CCRF-CEM leukemia) > 100 µM | GI50 (SF-295 CNS) > 100 µM | GI50 (A498 renal) > 100 µM | GI50 (HCT-15 colon) > 100 µM | GI50 (SK-MEL-28 melanoma) > 100 µM | GI50 (NCI-H226 lung) > 100 µM | GI50 (MDA-MB-435) > 100 µM | GI50 (UO-31 renal) > 100 µM | GI50 (HOP-62 NSCLC) > 100 µM | GI50 (NCI-H23 lung) > 100 µM | GI50 (HOP-92 NSCLC) > 100 µM | GI50 (UACC-62 melanoma) > 100 µM | GI50 (RXF 393 renal) > 100 µM | GI50 (IGROV1 ovarian) > 100 µM | GI50 (SK-MEL-5 melanoma) > 100 µM | GI50 (BT-549 breast) > 100 µM | GI50 (OVCAR-4 ovarian) > 100 µM | GI50 (M14 melanoma) > 100 µM | GI50 (SK-MEL-2 melanoma) > 100 µM | GI50 (HS 578T breast) > 100 µM | GI50 (A549 NSCLC) > 100 µM | GI50 (HT29 colon) > 100 µM | GI50 (OVCAR-3 ovarian) 75.8 µM
> 100 µM: TGI (RPMI-8226 leukemia) | TGI (SR leukemia) | TGI (U251 CNS) | TGI (SF-539 CNS) | TGI (EKVX NSCLC) | TGI (UACC-257 melanoma) | TGI (K-562 leukemia) | TGI (786-0 renal) | TGI (NCI/ADR-RES ovarian) | TGI (LOX IMVI melanoma) | TGI (PC-3 prostate) | TGI (TK-10 renal) | TGI (SW-620 colon) | TGI (MALME-3M melanoma) | TGI (NCI-H460 lung) | TGI (HCT-116 colon) | TGI (SF-268 CNS) | TGI (OVCAR-5 ovarian) | TGI (SK-OV-3 ovarian) | TGI (NCI-H522 lung) | TGI (MDA-MB-231 breast) | TGI (OVCAR-8 ovarian) | TGI (SNB-19 CNS) | TGI (COLO 205 colon) | TGI (CAKI-1 renal) | TGI (DU-145 prostate) | TGI (T-47D breast) | TGI (ACHN renal) | TGI (MCF7 breast) | TGI (KM12 colon) | TGI (CCRF-CEM leukemia) | TGI (SF-295 CNS) | TGI (A498 renal) | TGI (HCT-15 colon) | TGI (SK-MEL-28 melanoma) | TGI (NCI-H226 lung) | TGI (MDA-MB-435) | TGI (UO-31 renal) | TGI (HOP-62 NSCLC) | TGI (NCI-H23 lung) | TGI (HOP-92 NSCLC) | TGI (UACC-62 melanoma) | TGI (RXF 393 renal) | TGI (IGROV1 ovarian) | TGI (SK-MEL-5 melanoma) | TGI (BT-549 breast) | TGI (OVCAR-4 ovarian) | TGI (M14 melanoma) | TGI (SK-MEL-2 melanoma) | TGI (HS 578T breast) | TGI (A549 NSCLC) | TGI (HT29 colon) | TGI (OVCAR-3 ovarian)
